Experimental data: paper PMC11085442 (Molecules, 2024)
≈ marks a conversion by molar mass, not a printed value.

How the values were obtained:
[1] = Aqueous solubility determination by UV spectrophotometer; format: physicochemical; details: water, thermodynamic from solid, saturated solution concentration
Experimental: A UV spectrophotometer was used to test the aqueous solubility of target compounds. Each compound to be tested was prepared into solutions with concentrations of 0.2 M, 0.1 M, 0.05 M, 0.025 M, 0.0125 M, 0.00625 M, and 0.003125 M. The optical density (OD) values of the prepared solutions were measured using an ultraviolet spectrophotometer, and concentration–OD-value standard curves were drawn for each compound to be tested. The saturated solutions of the target compounds were diluted by 5000 times and detected using an ultraviolet spectrophotometer to measure the OD values, respectively. The measured OD values were substituted into the corresponding concentration-OD value standard curve to calculate the diluted concentrations, which were multiplied by 5000 to obtain the saturated solution concentrations of the target compounds.

[2] = system: H2O2-stimulated PC 12 cell lines; test: Protection against H2O2-induced oxidative damage (CCK-8); format: cell-based, rat; details: for viability at 5 µM / viability at 10 µM / viability at 20 µM: Rattus norvegicus; for viability at 5 µM: PC-12, Dose 5 μM; for viability at 5 µM / viability at 10 µM / viability at 20 µM / Cell viability: H2O2-induced oxidative damage, PC 12, H2O2 group 49.69 ± 1.37, control 100; for viability at 10 µM: PC-12, Dose 10 μM; for viability at 20 µM: PC-12, Dose 20 μM; for Cell viability: in % (unit assumed)
Experimental: PC 12 cells were seeded in 96-well plates at a density of 8000 cells/well and incubated overnight. […] After incubating under the same conditions for 24 h, 10 μL CCK-8 solution was added to each well. After 2 h incubation, the absorbance of each well was measured at 450 nm using a microplated reader (Multiskan MK-3, Thermo, Waltham, MA, USA).

[3] = system: LPS-stimulated RAW264.7 cell lines; test: LPS-induced NO production (Griess) in RAW264.7; format: cell-based, murine; details: for inhibitory activity against NO production compared with curcumin: 10 μM; for The production of NO / inhibition at 10 µM: LPS-stimulated RAW264.7; for The production of NO: LPS group 49.86 ± 0.62, control 1.20 ± 0.38; for inhibition at 10 µM: Mus musculus, read-out: inhibition rate (anti-inflammatory activity)
Experimental: RAW 264.7 cells were plated in 96-well plates at a density of 1 × 10^4 cells/well and incubated overnight at 37 °C under 5% CO2. […] Dexamethasone (Solarbio, D8040, Beijing, China) was used as the positive control. Then, 24 h later, NO production was determined by measuring the nitrite content using Griess reagents. Fifty microliters of culture supernatants were transferred to 96-well plates and mixed with 50 μL Griess reagent A. After incubation at room temperature for 5 min, the samples were mixed with an equal volume Griess reagent B for another 5 min. The absorbance of each mixture at 540 nm was measured using a microplate reader.

[4] = system: PC 12 cell lines; test: Radiation protection in vitro (CCK-8); format: cell-based, rat; details: for radiation protection capacity / radiation protection capability compared with curcumin: 10 μM; for radiation protection capacity: versus radiation group; for Cell viability / viability at 5 µM / viability at 10 µM / viability at 20 µM: radiation 8.0 Gy, PC 12, radiation group 50.22 ± 1.08; for Cell viability: in % (unit assumed); for viability at 5 µM / viability at 10 µM / viability at 20 µM: Rattus norvegicus; for viability at 5 µM: PC-12, Dose 5 μM; for viability at 10 µM: PC-12, Dose 10 μM; for viability at 20 µM: PC-12, Dose 20 μM
Experimental: The rat adrenal pheochromocytoma cells (PC 12) were used for in vitro studies. A Cell Counting Kit-8 (CCK-8, Applygen Technologies Co., Ltd., Beijing, China) assay was used to determine cell viability. […] Cells were irradiated with dose of 8.0 Gy at a dose rate of 0.8 Gy/min. Then, 10 μL CCK-8 solution was added to all the wells. After 4 h incubation, the absorbance at 450 nm of each well was measured in a multiscan photometer.

SMILES | viability at 5 µM [2] [%] | viability at 10 µM [2] [%] | viability at 20 µM [2] [%] | inhibitory activity against NO production compared with curcumin [3] | The production of NO ([3]; Dose 5 μM) | The production of NO ([3]; Dose 10 μM) | The production of NO ([3]; Dose 15 μM) | Cell viability ([4]; Dose 5 μM) | Cell viability ([4]; Dose 10 μM) | Cell viability ([4]; Dose 20 μM) | Cell viability ([2]; Dose 5 μM) | Cell viability ([2]; Dose 10 μM) | Cell viability ([2]; Dose 20 μM) | viability at 5 µM [4] [%] | viability at 10 µM [4] [%] | viability at 20 µM [4] [%] | other results
COc1ccc(/C=C/C(=O)CC(=O)/C=C/c2cc(CN(C)C)c(O)c(OC)c2)cc1O [Compound 11a] | 61.5 ± 1.46 | 73.7 ± 3.89 | 97.3 ± 1.95 | better inhibitory activity | 35.82 ± 1.34 | 15.68 ± 3.02 | 4.63 ± 0.40 | 60.93 ± 1.64 | 64.92 ± 0.58 | 106.32 ± 7.58 |  |  |  |  |  |  | solubility [1]: 132 mg/mL (≈ 311 mM); radiation protection capacity [4]: a certain degree of radiation protection capacity; cell survival rate (radiation protection) ([4]; at 20 μM, irradiated PC 12): 106%
COc1cc(/C=C/C(=O)CC(=O)/C=C/c2cc(C)c(O)c(C)c2)cc(CN(C)C)c1O [Compound 8] | 64.6 ± 1.64 | 67.8 ± 2.26 | 81.7 ± 3.21 |  | 42.90 ± 0.85 | 20.21 ± 1.82 | 5.46 ± 0.34 | 53.58 ± 0.78 | 55.23 ± 1.26 | 78.50 ± 2.59 |  |  |  |  |  |  | radiation protection capacity [4]: a certain degree of radiation protection capacity
COc1cc(/C=C/C(=O)CC(=O)/C=C/c2c(C)cc(O)cc2C)cc(CN(C)C)c1O [Compound 13] |  |  |  |  | 26.57 ± 1.74 | 21.53 ± 0.35 | 10.02 ± 0.61 |  |  |  | 62.94 ± 0.50 | 69.55 ± 1.06 | 80.61 ± 0.83 | 61.4 ± 1.58 | 67.8 ± 2.32 | 87.38 ± 0.6 | 
COc1cc(/C=C/C(=O)CC(=O)/C=C/c2cc(OC)c(O)c(OC)c2)cc(CN(C)C)c1O [Compound 2] | 55.7 ± 0.79 | 58.2 ± 0.8 | 63.4 ± 1.13 |  | 43.78 ± 1.52 | 42.04 ± 1.70 | 36.99 ± 1.85 | 50.96 ± 1.31 | 52.89 ± 2.05 | 54.68 ± 1.78 |  |  |  |  |  |  | 
COc1cc(/C=C/C(=O)CC(=O)/C=C/c2cc(CN(C)C)c(O)c(OC)c2)ccc1O [Compound 15a] | 62.2 ± 2.53 | 72.5 ± 2.02 | 89.22 ± 0.36 | better inhibitory activity | 33.79 ± 2.90 | 17.01 ± 0.60 | 4.71 ± 0.18 |  |  |  |  |  |  |  |  |  | solubility [1]: 284 mg/mL (≈ 667 mM)
COc1cc(/C=C/C(=O)CC(=O)/C=C/c2ccc(O)cc2)cc(CN(C)C)c1O [Compound 10] |  |  |  | better inhibitory activity | 36.66 ± 2.00 | 15.36 ± 2.09 | 4.91 ± 0.77 |  |  |  | 53.53 ± 2.28 | 58.20 ± 1.24 | 77.80 ± 2.65 | 58.4 ± 1.95 | 63.9 ± 2.22 | 79.3 ± 3.13 | inhibition at 10 µM [3]: 71%
COc1cc(/C=C/C(=O)CC(=O)/C=C/c2ccc(OC)c(OC)c2OC)cc(CN(C)C)c1O [Compound 6] | 56.6 ± 1.66 | 67.8 ± 1.91 | 94.89 ± 0.58 | better inhibitory activity | 27.16 ± 2.73 | 14.67 ± 3.66 | 5.95 ± 0.13 | 58.25 ± 1.05 | 62.18 ± 1.03 | 83.08 ± 6.65 |  |  |  |  |  |  | radiation protection capability compared with curcumin ([4]; irradiated PC 12): better radiation protection capability; radiation protection capacity [4]: a certain degree of radiation protection capacity
COc1cc(O)ccc1/C=C/C(=O)CC(=O)/C=C/c1cc(CN(C)C)c(O)c(OC)c1 [Compound 9] | 53.22 ± 0.26 | 58.53 ± 0.46 | 66.1 ± 1.09 |  | 42.38 ± 2.73 | 29.76 ± 1.48 | 19.69 ± 0.78 | 56.32 ± 1.77 | 59.94 ± 1.26 | 65.00 ± 1.84 |  |  |  |  |  |  | inhibition at 10 µM [3]: 41%
COc1cc(/C=C/C(=O)CC(=O)/C=C/c2cc(C)c(O)cc2C)cc(CN(C)C)c1O [Compound 12] |  |  |  | better inhibitory activity | 32.06 ± 0.58 | 15.78 ± 0.50 | 11.39 ± 1.00 |  |  |  | 60.69 ± 1.53 | 70.31 ± 1.65 | 79.23 ± 1.18 | 56.6 ± 1.03 | 63.1 ± 1.52 | 76.8 ± 1.27 | radiation protection capacity [4]: a certain degree of radiation protection capacity
COc1cc(/C=C/C(=O)CC(=O)/C=C/c2ccc(O)cc2C)cc(CN(C)C)c1O [Compound 3] | 64.7 ± 2.69 | 71.7 ± 3.77 | 81.7 ± 2.41 |  | 39.26 ± 2.12 | 30.62 ± 1.71 | 10.36 ± 3.69 | 49.57 ± 2.70 | 51.85 ± 2.04 | 57.44 ± 1.80 |  |  |  |  |  |  | 
COc1cc(/C=C/C(=O)CC(=O)/C=C/c2cc(CN(C)C)c(O)c(OC)c2)ccc1O [Compound 15] |  |  |  |  | 41.85 ± 1.07 | 28.31 ± 0.33 | 14.00 ± 0.92 |  |  |  | 60.18 ± 1.41 | 71.98 ± 3.71 | 87.82 ± 1.77 | 58.6 ± 0.61 | 63.45 ± 0.21 | 77 ± 1.23 | anti-oxidant capacity compared with curcumin ([2]; 10 μM, H2O2-stimulated PC 12): no statistical difference; inhibition at 10 µM [3]: 44%; radiation protection capability compared with curcumin ([4]; irradiated PC 12): no statistical difference
COc1cc(/C=C/C(=O)CC(=O)/C=C/c2c(OC)cc(O)cc2OC)cc(CN(C)C)c1O [Compound 14] |  |  |  |  | 27.84 ± 1.41 | 22.09 ± 0.55 | 9.39 ± 0.34 |  |  |  | 59.32 ± 2.89 | 65.73 ± 2.40 | 74.30 ± 1.25 | 53.08 ± 0.34 | 54.4 ± 0.72 | 63.5 ± 1.49 | 
COc1cc(/C=C/C(=O)CC(=O)/C=C/c2ccc(O)c(Cl)c2)cc(CN(C)C)c1O [Compound 7] | 54.4 ± 1.18 | 61.9 ± 1.29 | 78.2 ± 1.43 |  | 35.15 ± 2.72 | 18.46 ± 2.34 | 10.47 ± 1.32 | 61.54 ± 2.47 | 63.26 ± 3.00 | 69.98 ± 4.31 |  |  |  |  |  |  | 
COc1cc(/C=C/C(=O)CC(=O)/C=C/c2ccc(O)cc2F)cc(CN(C)C)c1O [Compound 4] | 61.7 ± 2.59 | 71 ± 2.33 | 84.7 ± 2.76 |  | 40.64 ± 1.28 | 29.91 ± 1.78 | 10.48 ± 0.47 | 49.46 ± 1.97 | 51.75 ± 0.40 | 59.56 ± 0.59 |  |  |  |  |  |  | 
